Laboratory results taken from US20110236325A1, “METHODS TO TREAT OR PREVENT A SKIN CONDITION USING A NELL1 PEPTIDE” (NellOne Therapeutics, Inc., priority 2010, published 2011).

What was measured:
EFT-400 tissues [1] = assay: Adverse effects of treatment on EFT-400 tissues (H&E stained histology); settings: 50 μM in the basolateral medium
Experimental: (§1) At the conclusion of the 24 hour post-irradiation period, EFT-400 tissues were fixed in 10% formalin for 2 hours at room temperature (two independent experiments with n=3). Formalin fixed tissues were embedded in paraffin and 6 micron slices were stained with haematoxylin and eosin (H&E).

EFT-400 tissues [2] = assay: Sunburned cell counts in UV-irradiated EpiDerm-FT (EFT-400) skin model tissues, H&E histology; format: cell-based, human
Experimental: Packaged tissues were stored at 4° C. overnight and then re-equilibrated in EFT-400-ASY medium overnight prior to the start of experiments. The sample size was n=3 for each treatment group in the gene expression experiments; and n=6 (two independent experiments of n=3) for the sunburned cell counts.
Treated and untreated tissues were exposed to UV irradiation with 200 mJ/cm^2UVB/29.94 mW/cm^2UVA simulated solar UV light (Honle-500 solar lamp).
as §1

EFT-400 tissues [3] = assay: Gene expression by quantitative PCR custom array in EFT-400 tissues with or without UV irradiation; settings: for AVG Ct ACTB (housekeeping gene) / AVG Ct AQP3 / AVG Ct BCL2L1 / AVG Ct COL1A1 / AVG Ct COL4A2 / AVG Ct COL5A1 / AVG Ct COL6A1 / AVG Ct COL6A2 / AVG Ct COL7A1 / AVG Ct COL8A1 / AVG Ct COL11A1 / AVG Ct COL12A1 / AVG Ct COL14A1 / AVG Ct COL15A1 / AVG Ct COL16A1 / AVG Ct CYP2E1 / AVG Ct DSG1 / AVG Ct ERCC1 / AVG Ct FN1 / AVG Ct GAPDH (housekeeping gene) / AVG Ct GDF15 / AVG Ct GSTM3 / AVG Ct HSPA8 / AVG Ct IL1A / AVG Ct IL1B / AVG Ct IL8 / AVG Ct KAL1 / AVG Ct KRT16 / AVG Ct LAMA1 / AVG Ct LAMA2 / AVG Ct LAMA3 / AVG Ct LAMA5 / AVG Ct LAMB1 / AVG Ct LAMB3 / AVG Ct LAMC1 / AVG Ct MMP1 / AVG Ct MMP2 / AVG Ct MT2A / AVG Ct PCNA / AVG Ct RPL13A (housekeeping gene) / AVG Ct SIRT1 / AVG Ct TGFBI / AVG Ct THBS3 / AVG Ct TNC / AVG Ct VTN: 50 uM Genistein
Experimental: EpiDerm-FT™ (EFT-400) tissues were produced and packaged in the MatTek Corporation GMP tissue culture production laboratories following standard procedures. Packaged tissues were stored at 4° C. overnight and then re-equilibrated in EFT-400-ASY medium overnight prior to the start of experiments. The sample size was n=3 for each treatment group in the gene expression experiments; and n=6 (two independent experiments of n=3) for the sunburned cell counts.
Total RNA was isolated from the EFT-400 tissues (RNAqueous kit, Ambion) (n=3) and utilized for gene expression analysis by quantitative PCR on an SABioscience custom array containing 42 Human Extracellular Matrix (ECM) and Adhesion Molecules RT^2 Profiler™ PCR Array, stress and toxicity genes whose expression, based on MatTek data, are known to be dramatically altered by UV-protective compounds on UV damaged skin. […] Further, there were three internal control spots on the array that corresponded to human genomic DNA contamination (HGDC), positive PCR control (PPC), and reverse transcription control (RTC).

O=c1c(-c2ccc(O)cc2)coc2cc(O)cc(O)c12 [Genistein, reference compound]
adverse effects on the EFT-400 tissues (EFT-400 tissues [1]): did not produce any noteworthy adverse effects | sunburned cell formation (EFT-400 tissues [2]; 50 μM, 200 mJ/cm2 UVB/29.94 mW/cm2 UVA, 24 hour post irradiation): did not decrease sunburned cell formation to the same extent as 100 ng/ml NELL1 | number of sunburned cells as compared to UV-only controls (EFT-400 tissues [2]; pre-treatment 30 minutes prior to UV, continued 24 hours post-irradiation): statistically significant reduction in the number of sunburned cells | activity in producing the observed effects (sunburned cells, gene expression) (EFT-400 tissues [3]; NELL1 protein at 100 ng/ml, genistein at 50 μM): most active in producing the observed effects | AVG Ct ACTB (housekeeping gene) (EFT-400 tissues [3]; No UV): 18.95 | AVG Ct AQP3 (EFT-400 tissues [3]; No UV): 23.75 | AVG Ct BCL2L1 (EFT-400 tissues [3]; No UV): 24.35 | AVG Ct COL1A1 (EFT-400 tissues [3]; No UV): 18.66 | AVG Ct COL4A2 (EFT-400 tissues [3]; No UV): 26.06 | AVG Ct COL5A1 (EFT-400 tissues [3]; No UV): 23.19 | AVG Ct COL6A1 (EFT-400 tissues [3]; No UV): 19.41 | AVG Ct COL6A2 (EFT-400 tissues [3]; No UV): 19.82 | AVG Ct COL7A1 (EFT-400 tissues [3]; No UV): 26.3 | AVG Ct COL8A1 (EFT-400 tissues [3]; No UV): 28.27 | AVG Ct COL11A1 (EFT-400 tissues [3]; No UV): 27.54 | AVG Ct COL12A1 (EFT-400 tissues [3]; No UV): 25.19 | AVG Ct COL14A1 (EFT-400 tissues [3]; No UV): 26.08 | AVG Ct COL15A1 (EFT-400 tissues [3]; No UV): 25.73 | AVG Ct COL16A1 (EFT-400 tissues [3]; No UV): 24.6 | AVG Ct CYP2E1 (EFT-400 tissues [3]; No UV): 31.05 | AVG Ct DSG1 (EFT-400 tissues [3]; No UV): 20.31 | AVG Ct ERCC1 (EFT-400 tissues [3]; No UV): 24.94 | AVG Ct FN1 (EFT-400 tissues [3]; No UV): 21.06 | AVG Ct GAPDH (housekeeping gene) (EFT-400 tissues [3]; No UV): 17.74 | AVG Ct GDF15 (EFT-400 tissues [3]; No UV): 27.52 | AVG Ct GSTM3 (EFT-400 tissues [3]; No UV): 29.01 | AVG Ct HSPA8 (EFT-400 tissues [3]; No UV): 20.53 | AVG Ct IL1A (EFT-400 tissues [3]; No UV): 25.92 | AVG Ct IL1B (EFT-400 tissues [3]; No UV): 29.03 | AVG Ct IL8 (EFT-400 tissues [3]; No UV): 23.12 | AVG Ct KAL1 (EFT-400 tissues [3]; No UV): 31.59 | AVG Ct KRT16 (EFT-400 tissues [3]; No UV): 17.11 | AVG Ct LAMA1 (EFT-400 tissues [3]; No UV): 29.54 | AVG Ct LAMA2 (EFT-400 tissues [3]; No UV): 25.35 | AVG Ct LAMA3 (EFT-400 tissues [3]; No UV): 24.25 | AVG Ct LAMA5 (EFT-400 tissues [3]; No UV): 27.39 | AVG Ct LAMB1 (EFT-400 tissues [3]; No UV): 23.3 | AVG Ct LAMB3 (EFT-400 tissues [3]; No UV): 25.31 | AVG Ct LAMC1 (EFT-400 tissues [3]; No UV): 23.09 | AVG Ct MMP1 (EFT-400 tissues [3]; No UV): 22.22 | AVG Ct MMP2 (EFT-400 tissues [3]; No UV): 19.2 | AVG Ct MT2A (EFT-400 tissues [3]; No UV): 18.74 | AVG Ct PCNA (EFT-400 tissues [3]; No UV): 23.76 | AVG Ct RPL13A (housekeeping gene) (EFT-400 tissues [3]; No UV): 20.65 | AVG Ct SIRT1 (EFT-400 tissues [3]; No UV): 26.45 | AVG Ct TGFBI (EFT-400 tissues [3]; No UV): 22.04 | AVG Ct THBS3 (EFT-400 tissues [3]; No UV): 29.09 | AVG Ct TNC (EFT-400 tissues [3]; No UV): 22.12 | AVG Ct VTN (EFT-400 tissues [3]; No UV): 32.74 | expression of IL-1β elevated after UV exposure (EFT-400 tissues [3]; UV-irradiated): decrease in the expression | expression of IL-8 elevated after UV exposure (EFT-400 tissues [3]; UV-irradiated): decrease in the expression | expression of MMP-1 elevated after UV exposure (EFT-400 tissues [3]; UV-irradiated): decrease in the expression | levels of AQP3 RNA after UV exposure (EFT-400 tissues [3]; UV-irradiated): did not have an effect on AQP3 levels | reversing the UV-induced effects on gene expression (EFT-400 tissues [3]; UV-irradiated): most effective at reversing the UV-induced effects | UV-elevated levels of AQP3 (EFT-400 tissues [3]; UV-irradiated, genistein): did not have the same effect | AVG Ct ACTB (housekeeping gene) (EFT-400 tissues [3]; UVB + UVA): 18.85 | AVG Ct AQP3 (EFT-400 tissues [3]; UVB + UVA): 23.01 | AVG Ct BCL2L1 (EFT-400 tissues [3]; UVB + UVA): 23.79 | AVG Ct COL1A1 (EFT-400 tissues [3]; UVB + UVA): 18.54 | AVG Ct COL4A2 (EFT-400 tissues [3]; UVB + UVA): 21.82 | AVG Ct COL5A1 (EFT-400 tissues [3]; UVB + UVA): 23.29 | AVG Ct COL6A1 (EFT-400 tissues [3]; UVB + UVA): 19.47 | AVG Ct COL6A2 (EFT-400 tissues [3]; UVB + UVA): 19.68 | AVG Ct COL7A1 (EFT-400 tissues [3]; UVB + UVA): 24.97 | AVG Ct COL8A1 (EFT-400 tissues [3]; UVB + UVA): 27.28 | AVG Ct COL11A1 (EFT-400 tissues [3]; UVB + UVA): 27.6 | AVG Ct COL12A1 (EFT-400 tissues [3]; UVB + UVA): 24.93 | AVG Ct COL14A1 (EFT-400 tissues [3]; UVB + UVA): 25.69 | AVG Ct COL15A1 (EFT-400 tissues [3]; UVB + UVA): 25.83 | AVG Ct COL16A1 (EFT-400 tissues [3]; UVB + UVA): 23.98 | AVG Ct CYP2E1 (EFT-400 tissues [3]; UVB + UVA): 29.69 | AVG Ct DSG1 (EFT-400 tissues [3]; UVB + UVA): 21.03 | AVG Ct ERCC1 (EFT-400 tissues [3]; UVB + UVA): 24.08 | AVG Ct FN1 (EFT-400 tissues [3]; UVB + UVA): 20.79 | AVG Ct GAPDH (housekeeping gene) (EFT-400 tissues [3]; UVB + UVA): 18.39 | AVG Ct GDF15 (EFT-400 tissues [3]; UVB + UVA): 21.74 | AVG Ct GSTM3 (EFT-400 tissues [3]; UVB + UVA): 28.37 | AVG Ct HSPA8 (EFT-400 tissues [3]; UVB + UVA): 20.14 | AVG Ct IL1A (EFT-400 tissues [3]; UVB + UVA): 25.87 | AVG Ct IL1B (EFT-400 tissues [3]; UVB + UVA): 28.03 | AVG Ct IL8 (EFT-400 tissues [3]; UVB + UVA): 20.61 | AVG Ct KAL1 (EFT-400 tissues [3]; UVB + UVA): 31.72 | AVG Ct KRT16 (EFT-400 tissues [3]; UVB + UVA): 17.92 | AVG Ct LAMA1 (EFT-400 tissues [3]; UVB + UVA): 28.49 | AVG Ct LAMA2 (EFT-400 tissues [3]; UVB + UVA): 25.42 | AVG Ct LAMA3 (EFT-400 tissues [3]; UVB + UVA): 24.01 | AVG Ct LAMA5 (EFT-400 tissues [3]; UVB + UVA): 27.71 | AVG Ct LAMB1 (EFT-400 tissues [3]; UVB + UVA): 22.85 | AVG Ct LAMB3 (EFT-400 tissues [3]; UVB + UVA): 24.92 | AVG Ct LAMC1 (EFT-400 tissues [3]; UVB + UVA): 22.69 | AVG Ct MMP1 (EFT-400 tissues [3]; UVB + UVA): 20.16 | AVG Ct MMP2 (EFT-400 tissues [3]; UVB + UVA): 18.5 | AVG Ct MT2A (EFT-400 tissues [3]; UVB + UVA): 16.4 | AVG Ct PCNA (EFT-400 tissues [3]; UVB + UVA): 23.21 | AVG Ct RPL13A (housekeeping gene) (EFT-400 tissues [3]; UVB + UVA): 20.68 | AVG Ct SIRT1 (EFT-400 tissues [3]; UVB + UVA): 25.31 | AVG Ct TGFBI (EFT-400 tissues [3]; UVB + UVA): 22.03 | AVG Ct THBS3 (EFT-400 tissues [3]; UVB + UVA): 28.97 | AVG Ct TNC (EFT-400 tissues [3]; UVB + UVA): 21.29 | AVG Ct VTN (EFT-400 tissues [3]; UVB + UVA): 32.61 | extent of gene expression changes in the absence of UV irradiation, compared to NELL1 (EFT-400 tissues [3]; no UV): more changes compared to NELL1 | gene expression in the absence of UV irradiation (EFT-400 tissues [3]; no UV): some decreases in gene expression
